Experimental data: patent US9617256B2 (priority 2007, dated 2017)
≈ marks a conversion by molar mass, not a printed value. Read-outs that look alike come from different tables or passages of the source.

How the values were obtained:
APAE001 (ATCC27853) = test: MIC broth microdilution, APAE001; assay type: cell-based, P. aeruginosa; details: Pseudomonas aeruginosa, ATCC27853, read-out: MIC APAE001, APAE001 (ATCC27853)
Description: (§1) Bacterial isolates were cultivated from −70° C. frozen stocks by overnight passages at 35° C. in ambient air on Mueller-Hinton agar (Beckton Dickinson, Franklin Lakes, N.J.). Clinical isolates tested were obtained from various geographically diverse hospitals in the US and abroad (Focus Diagnostics, Herndon, Va. and JMI, North Liberty, Iowa). Quality control strains were from the American Type Culture Collection (ATCC; Rockville, Md.). Additional primary panel strains were generated using standard molecular biology techniques.
(§2) Minimum Inhibitory Concentrations (MICs) were determined by the broth microdilution method in accordance with the Clinical and Laboratory Standards Institute (CLSI) guidelines. In brief, organism suspensions were adjusted to a 0.5 McFarland standard to yield a final inoculum between 3×10^5 and 7×10^5 colony-forming units (CFU)/mL. Drug dilutions and inocula were made in sterile, cation adjusted Mueller-Hinton Broth (Beckton Dickinson). An inoculum volume of 100 μL was added to wells containing 100 μL of broth with 2-fold serial dilutions of drug. All inoculated microdilution trays were incubated in ambient air at 35° C. for 18-24 hours. […] Performance of the assay was monitored by the use of laboratory quality-control strains and levofloxacin, a compound with a defined MIC spectrum, in accordance with CLSI guidelines.
(§3) *AECO001 is ATCC25922, AECO063 is ATCC25922 bearing an acrAB mutation, APAE001 is ATCC27853, APAE006 is a strain of P. aeruginosa in which all efflux pumps are inactivated, APAE006+PMBN indicates MICs with the indicated strain in the presence of 8 micrograms per milliliter of polymyxin B nonapeptide, AABA1060 is a clinical isolate of Acinetobacter baumannii, ASAU001 is a laboratory strain of S. aureus (ATCC29213).

[1] = system: APAE006 (strain of P. aeruginosa in which all efflux pumps are inactivated); test: microbe, parasite or virus in culture; assay type: cell-based; details: Pseudomonas aeruginosa, read-out: MIC APAE006, APAE006, all efflux pumps inactivated
Description: as §1, §2, §3

[2] = system: ASAU001 (laboratory strain of S. aureus, ATCC29213); test: MIC broth microdilution, ASAU001; assay type: cell-based; details: Staphylococcus aureus, ATCC29213, read-out: MIC ASAU001
Description: as §1, §2, §3

[3] = system: AECO063 (ATCC25922 bearing an acrAB mutation); test: microbe, parasite or virus in culture; assay type: cell-based, E. coli; details: Escherichia coli, ATCC25922, read-out: MIC AECO063
Description: as §1, §2, §3

AECO001 (ATCC25922) = test: MIC broth microdilution, AECO001; assay type: cell-based, E. coli; details: for MIC: Escherichia coli
Description: as §1, §2, §3

[4] = system: APAE006 in the presence of 8 micrograms per milliliter of polymyxin B nonapeptide; assay type: cell-based, P. aeruginosa; details: APAE006 with 8 micrograms per milliliter polymyxin B nonapeptide
Description: as §1, §2, §3

[5] = system: AABA1060 (clinical isolate of Acinetobacter baumannii); test: MIC broth microdilution, AABA1060; assay type: cell-based; details: Acinetobacter baumannii, read-out: MIC AABA1060
Description: as §1, §2, §3

[6] = ATCC25922, read-out: MIC AECO001
[7] = ATCC25922, read-out: MIC AECO001 HSA AGP

| Structure (SMILES) | MIC (APAE001 (ATCC27853)) [µg/mL] | MIC [1] [µg/mL] | MIC [2] [µg/mL] | MIC [3] [µg/mL] | MIC (AECO001 (ATCC25922); [6]) [µg/mL] | MIC (AECO001 (ATCC25922); [7]) [µg/mL] | MIC APAE006 + PMBN [4] | MIC [5] [µg/mL] | Ratio of MICs on AECO001 [Cpd (A = —CHCH3NH2)/Cpd (A = —C(CH3)2NH2)] (AECO001 (ATCC25922); MIC of paired compound with A = —CHCH3NH2 divided by MIC of compound with A = —C(CH3)2NH2, n=2 data, pairs identical except for the A moiety) |
| --- | --- | --- | --- | --- | --- | --- | --- | --- | --- |
| CC(C)(N)[C@H](NC(=O)c1ccc(C#CC#Cc2ccc(CN3CCS(=O)(=O)CC3)cc2)cc1)C(=O)NO [Example 86-7] | 2 to 16 (≈ 3.83 to 30.6 µM) | < 2 | 16 to 64 (≈ 30.6 to 122 µM) | < 2 | < 2 | 2 to 16 (≈ 3.83 to 30.6 µM) | A (MIC's of 2.0 μg/mL or less = A) | < 2 |  |
| CC(C)(N)C(NC(=O)c1ccc(C#CC#Cc2ccc(CNC3CC3)cc2)cc1)C(=O)NO (centres unmarked) [Example 87-1, N-(2-Amino-1-hydroxycarbamoyl-2-methyl-propyl)-4-[4-(4-cyclopropylaminomethyl-phenyl)-buta-1,3-diynyl]-benzamide] | < 2 | < 2 | 16 to 64 (≈ 36 to 144 µM) | < 2 | < 2 | 2 to 16 (≈ 4.5 to 36 µM) | A (MIC's of 2.0 μg/mL or less = A) | < 2 |  |
| CC(C)(N)[C@H](NC(=O)c1ccc(C#CC#Cc2ccc(CNC3CC3)cc2)cc1)C(=O)NO [Example 87-4] | < 2 | < 2 | 16 to 64 (≈ 36 to 144 µM) | < 2 | < 2 | 2 to 16 (≈ 4.5 to 36 µM) | A (MIC's of 2.0 μg/mL or less = A) | < 2 |  |
| CC(C)(N)C(NC(=O)c1ccc(C#CC#Cc2ccncc2)cc1)C(=O)NO (centres unmarked) [Example 88-6] | 2 to 16 (≈ 5.31 to 42.5 µM) | < 2 | 16 to 64 (≈ 42.5 to 170 µM) | < 2 | < 2 | 2 to 16 (≈ 5.31 to 42.5 µM) | A (MIC's of 2.0 μg/mL or less = A) | 2 to 16 (≈ 5.31 to 42.5 µM) |  |
| CC(C)(O)[C@H](NC(=O)c1ccc(C#CC#Cc2ccccn2)cc1)C(=O)NO [Example 88-7] | 2 to 16 (≈ 5.3 to 42.4 µM) | < 2 | 16 to 64 (≈ 42.4 to 170 µM) | < 2 | < 2 | 2 to 16 (≈ 5.3 to 42.4 µM) | A (MIC's of 2.0 μg/mL or less = A) | 2 to 16 (≈ 5.3 to 42.4 µM) |  |
| CC(C)(N)[C@H](NC(=O)c1ccc(C#CC#Cc2cccnc2)cc1)C(=O)NO [Example 88-8] | < 2 | < 2 | 16 to 64 (≈ 42.5 to 170 µM) | < 2 | < 2 | < 2 | A (MIC's of 2.0 μg/mL or less = A) | 2 to 16 (≈ 5.31 to 42.5 µM) | 5.1 |
| C[C@@H](N)[C@H](NC(=O)c1ccc(C#CC#Cc2cccs2)cc1)C(=O)NO [Example 88-12] | < 2 | < 2 | 2 to 16 (≈ 5.44 to 43.5 µM) | < 2 | < 2 | 2 to 16 (≈ 5.44 to 43.5 µM) | A (MIC's of 2.0 μg/mL or less = A) | < 2 |  |
| CC(C)(O)[C@H](NC(=O)c1ccc(C#CC#Cc2ccsc2)cc1)C(=O)NO [Example 88-14] | < 2 | < 2 | 16 to 64 (≈ 41.8 to 167 µM) | < 2 | < 2 | 2 to 16 (≈ 5.23 to 41.8 µM) | A (MIC's of 2.0 μg/mL or less = A) | < 2 |  |
| CC(C)(N)[C@H](NC(=O)c1ccc(C#CC#Cc2ccsc2)cc1)C(=O)NO [Example 88-15] | < 2 | < 2 | 2 to 16 (≈ 5.24 to 41.9 µM) | < 2 | < 2 | < 2 | A (MIC's of 2.0 μg/mL or less = A) | < 2 |  |
| CC(C)(N)[C@H](NC(=O)c1ccc(C#CC#Cc2cncs2)cc1)C(=O)NO [Example 88-16] | < 2 | < 2 | 16 to 64 (≈ 41.8 to 167 µM) | < 2 | < 2 | 2 to 16 (≈ 5.23 to 41.8 µM) | A (MIC's of 2.0 μg/mL or less = A) | < 2 |  |
| C[C@@H](N)[C@H](NC(=O)c1ccc(C#CC#Cc2cnc(N)s2)cc1)C(=O)NO [Example 88-17] | < 2 | < 2 | 16 to 64 (≈ 41.7 to 167 µM) | < 2 | < 2 | 16 to 64 (≈ 41.7 to 167 µM) | A (MIC's of 2.0 μg/mL or less = A) | 2 to 16 (≈ 5.22 to 41.7 µM) |  |
